In patent publication US20050152906A1, “Specific human antibodies” (priority 2003, published 2005):
Ends that are not written are not given here. * marks the point of attachment. SO3H = O=S(=O)(O)*

Tests used:
[1] = system: Y1-scFv binding to platelets; test: Y1-scFv platelet binding assay, inhibition by synthetic GPIb peptides
Experimental: Briefly, peptides were synthesized by solid phase methodology using an ABIMED AMS-422 multiple peptide synthesizer, and as required, tyrosine sulfate was incorporated using FMOC-Try sodium salt. Synthetic peptides were purified using a Lichrosorb RP-18 column. For the Y1-scFv platelet binding assay, a mixture of synthetic peptide (2.5, 25 or 200 μM) and Y1-scFv (10 μg) was incubated with […]. Following washing, platelets were incubated with R-phycoerythrin labeled-anti scFv, washed and analyzed by FACS.

Storage stability = type: physicochemical; conditions: under argon at −20° C.
Experimental: After reaction with acetic acid, the resulting free base was isolated as its solid acetate salt followed by lyophilization. M-DNR-Ac is stable for at least 12 months under argon at −20° C.
The methanolic solution was evaporated to dryness under reduced pressure at 25° C., resulting in a red oily residue, which was dissolved in dry methanol. To this solution, dry ether was added and the precipitated red solid isolated by centrifugation. […] (6-Maleimidocaproyl)hydrazone of Morphlinyldaunorubicin acetate is stable for at least 4 months under argon at −20° C.

primary B-CLL cells [2] = test: CDC against mononuclear cells from B-CLL patients; type: cell-based, human; conditions: presence and absence of 25% of the patients' plasma
Experimental: For CDC experiments, mononuclear cells from B-CLL patients were separated on FICOLL®. Cells were incubated with or without Y1-IgG or control antibodies for 24 hours in the presence or absence of the patient's plasma. Apoptotic cells were then stained with Annexin-PI and analyzed by FACS.
Mononuclear cells from B-CLL patients were incubated with Y1-IgG, Rituximab or Campath® in the presence and absence of 25% of the patients' plasma. […] Neither Rituximab nor Y1-IgG induced cytotoxicity via complement fixation.

primary AML cells = test: Semisolid clonogenic assay, primary AML patient samples; type: cell-based, human
Experimental: 3.2 Cytotoxicity of Y1-IgGM-DNR Derivative (FIG. 12-14): The specific cytotoxic effect of Y1-drug conjugates was assessed in semisolid (METHOCULT™; StemCell Technologies Inc., Vancouver BC, Canada) clonogenic assays. Cells (CD34+ stem cells from cord blood or primary AML patient samples) were incubated with free or conjugated drugs at concentrations of up to 10^−6M for 1 hour at 37° C. The cells were washed, seeded in METHOCULT™ and grown for 10-12 days, after which colonies were counted. Bovine (b)-IgG-M-DNR was used as a non-specific conjugate control.

primary B-CLL cells [3] = test: Y1-IgG-mediated ADCC by PBMC effector cells against primary B-CLL cells; type: cell-based
Experimental: For ADCC experiments, mononuclear effector and target cells were separated on FICOLL®. Target cells were then labeled with PKH26, which stably incorporates a fluorescent dye within the lipid regions of the cell membranes. Cells were then washed and incubated with effector cells at various Effector:Target (E:T) ratios, in the absence or presence of different concentrations of Y1-IgG or control antibodies for 24 hours. Dead cells were stained by TOPRO®(Molecular Probes, Inc., Eugene, Oreg.): and analyzed by FACS on gated target cells.
To determine if Y1-IgG mediates ADCC in primary B-CLL, B-CLL cells from different patients were co-incubated for 24 hours with PBMC effector cells at different effector/target cell ratios. […] Variation may be attributed to the effector cell samples obtained from different healthy donors, as well as to differences among the B-CLL samples.

[4] = biological target: PSGL-1 (P-Selectin Glycoprotein Ligand-1) (human) (UniProt Q14242); test: cell-based or functional assay
Chain of UniProt Q14242 (Q14242 42-412): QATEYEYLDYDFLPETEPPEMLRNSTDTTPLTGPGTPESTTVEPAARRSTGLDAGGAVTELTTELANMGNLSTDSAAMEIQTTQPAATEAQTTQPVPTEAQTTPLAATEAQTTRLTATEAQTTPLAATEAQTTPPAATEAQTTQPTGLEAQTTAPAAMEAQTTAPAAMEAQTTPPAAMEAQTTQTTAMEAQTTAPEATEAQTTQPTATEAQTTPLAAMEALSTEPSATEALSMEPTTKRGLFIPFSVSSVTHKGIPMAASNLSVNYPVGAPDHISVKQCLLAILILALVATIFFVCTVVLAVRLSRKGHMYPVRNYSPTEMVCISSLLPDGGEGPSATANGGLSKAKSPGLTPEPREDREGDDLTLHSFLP

[5] = substitution mutant peptides based on DLY^SDYYPE (FIG. 17B), concentration not given

**Q.** For “DLY^SDFYPE (DLY(SO3H)DFYPE) [substitution mutant peptide, amino acids 278 to 280]”, which “inhibition of Y1-scFv binding to platelets” value (shortened to “inhibition of Y1-scFv binding”) [1, 5] is on record?
**A.** The value was “inhibited Y1-scFv binding to platelets”.

**Q.** With CC(=O)O.COc1cccc2c1C(=O)c1c(O)c3c(c(O)c1C2=O)C[C@@](O)(C(C)=NNC(=O)CCCCCN1C(=O)C=CC1=O)C[C@@H]3O[C@H]1C[C@H](N2CCOCC2)[C@H](O)[C@H](C)O1 [(6-Maleimidocaproyl)hydrazone of Morphlinyldaunorubicin acetate] as the molecule, how does the “stable for” value (Storage stability) read?
**A.** The value was “at least 4 months”.

**Q.** For “DLYDYY^SPE (DLYDYYPE; not fully specified (residue 6)) [sulfated at the third tyrosine]”, which “inhibition of Y1-scFv binding” value ([1]; peptide 200 μM) is on record?
**A.** The value was “no effect”.

**Q.** Which “inhibition of Y1-scFv binding” value [1, 5] does the source give for “DLY^SDYYPA (DLY(SO3H)DYYPA) [substitution mutant peptide, amino acids 278 to 280]” here?
**A.** Its value is “inhibited Y1-scFv binding to platelets”.

**Q.** Which “cytotoxicity via CDC” value (primary B-CLL cells [2]) does the source give for “Campath®: commercially available humanized antibody which binds CD52” here?
**A.** Its value is “mediated cytotoxicity of primary B-CLL cells via CDC”.

**Q.** Which “inhibition of Y1-scFv binding” value ([1]; peptide 25 μM) does the source give for “DLY^SDYYPE (DLY(SO3H)DYYPE) [sulfated at the first tyrosine]” here?
**A.** The value was “effectively inhibited”.

**Q.** With COc1cccc2c1C(=O)c1c(O)c3c(c(O)c1C2=O)C[C@@](O)(C(C)=O)C[C@@H]3O[C@H]1C[C@H](N2CCOCC2)[C@H](O)[C@H](C)O1 [M-DNR, 3′-Deamino-3′-(4-morpholinyl)daunorubicin] as the molecule, how does the “colony formation relative to control, AML-M4 cells” value (primary AML cells; 1 μM) read?
**A.** Its value is “did not give rise to colonies”.

**Q.** What about the “colony formation relative to control, AML-M5 cells” value (primary AML cells; 1 μM) of the same molecule?
**A.** The value was “did not give rise to colonies”.

**Q.** What about the “viability of primary AML cells relative to the control” value (primary AML cells; AML sample M7 megakaryocytic leukemia, 0.1 μM) of the same molecule?
**A.** The value was 80%.

**Q.** With “DLY^SAYYPE (DLY(SO3H)AYYPE) [Asp-277 replaced by Ala]” as the molecule, how does the “inhibition of Y1-scFv binding” value [1, 5] read?
**A.** Its value is “substantially incapable of inhibiting”.

**Q.** For DLYDYYPE [non-sulfated control peptide], which “inhibition of Y1-scFv binding” value ([1]; peptide 200 μM) is on record?
**A.** The value was “no effect”.

**Q.** With “DLY^SDYY^SPE (DLY(SO3H)DYY(SO3H)PE) [sulfated at the first and third tyrosines]” as the molecule, how does the “inhibition of Y1-scFv binding” value ([1]; peptide 25 μM) read?
**A.** Its value is “effectively inhibited”.

**Q.** With “DLY^SEYYPE (DLY(SO3H)EYYPE) [Asp-277 replaced by Glu]” as the molecule, how does the “inhibition of Y1-scFv binding” value [1, 5] read?
**A.** The value was “substantially incapable of inhibiting”.

**Q.** With “DAY^SDYYPE (DAY(SO3H)DYYPE) [Leu-275 replaced by Ala]” as the molecule, how does the “inhibition of Y1-scFv binding” value [1, 5] read?
**A.** Its value is “inhibited Y1-scFv binding to platelets”.

**Q.** For “DLY^SDY^SY^SPE (DLY(SO3H)DY(SO3H)Y(SO3H)PE) [GPIb-based peptide comprising 3 sulfated tyrosines]”, which “inhibition of Y1-scFv binding” value ([1]; peptide 25 μM) is on record?
**A.** The value was “effectively inhibited”.

**Q.** For “DLY^SDYYAE (DLY(SO3H)DYYAE) [substitution mutant peptide, amino acids 278 to 280]”, which “inhibition of Y1-scFv binding” value [1, 5] is on record?
**A.** Its value is “inhibited Y1-scFv binding to platelets”.

**Q.** With “DLYDY^SY^SPE (DLYDY(SO3H)Y(SO3H)PE) [sulfated at the second and third tyrosines]” as the molecule, how does the “inhibition of Y1-scFv binding” value ([1]; peptide 200 μM) read?
**A.** The value was “no effect”.

**Q.** For “Rituximab: commercially available humanized antibody which binds CD20”, which “cytotoxicity via CDC” value (primary B-CLL cells [2]) is on record?
**A.** The value was “Neither”.

**Q.** And the “concentration at which saturation of receptor molecules on the target cells was achieved” value (primary B-CLL cells [3])?
**A.** The value was “not by the same concentration”.

**Q.** Which “inhibition of Y1-scFv binding” value ([1]; peptide 25 μM) does the source give for “DLY^SDY^SYPE (DLY(SO3H)DY(SO3H)YPE) [sulfated at the first and second tyrosines]” here?
**A.** The value was “effectively inhibited”.

**Q.** For CC(=O)O.COc1cccc2c1C(=O)c1c(O)c3c(c(O)c1C2=O)C[C@@](O)(C(C)=O)C[C@@H]3O[C@H]1C[C@H](N2CCOCC2)[C@H](O)[C@H](C)O1 [M-DNR-Ac, 3′-Deamino-3′-(4-morpholinyl)daunorubicin acetate], which “stable for” value (Storage stability) is on record?
**A.** Its value is “at least 12 months”.

**Q.** Which inhibition of ML2 cell rolling on rh-P-Selectin (1 µg/ml) at all shear forces [4] does the source give for mouse anti-PSGL-1 antibody KPL1 here?
**A.** Its inhibition of ML2 cell rolling on rh-P-Selectin (1 µg/ml) at all shear forces is 100%.

**Q.** With “DLY^SNYYPE (DLY(SO3H)NYYPE) [Asp-277 replaced by Asn]” as the molecule, how does the “inhibition of Y1-scFv binding” value [1, 5] read?
**A.** The value was “substantially incapable of inhibiting”.

**Q.** For “DLEDYYPE [sulfated Tyr-276 replaced with Glu]”, which “inhibition of Y1-scFv binding” value [1, 5] is on record?
**A.** The value was “no substantial inhibition”.

**Q.** With “DLY^SDAYPE (DLY(SO3H)DAYPE) [substitution mutant peptide, amino acids 278 to 280]” as the molecule, how does the “inhibition of Y1-scFv binding” value [1, 5] read?
**A.** The value was “inhibited Y1-scFv binding to platelets”.
